Assay results taken from paper PMC10144242, “Design, Synthesis, In Vitro, and In Silico Insights of 5-(Substituted benzylidene)-2-phenylthiazol-4(5H)-one Derivatives: A Novel Class of Anti-Melanogenic Compounds” (Molecules, 2023).

System: B16F10 cells
Assay: Cell viability / cytotoxicity, EZ-Cytox assay
Assay type: cell-based, murine
Conditions: concentrations ≤ 20 µM, 48 and 72 h
Method: Before investigating their inhibitory effects on B16F10 cells, the viability of (Z)-BPT derivatives 1–3 was examined in B16F10 cells.
To determine the cell viability, six different concentrations (0, 1, 2, 5, 10, and 20 µM) of (Z)-BPT derivatives 1–3 were used, and the results were examined at two time points (48 and 72 h). […] Based on the cell viability results, the concentrations for cell-based assays related to the melanin production level and cellular tyrosinase activity were determined.
Cytotoxicity studies of (Z)-BPT derivatives 1–3 were performed on B16F10 melanoma cells using the previously established EZ-Cytox (EZ-3000, DoGenBio, Seoul, Republic of Korea) test, and cytotoxicity studies of (Z)-BPT derivatives 1–3 were conducted on B16F10 melanoma cells. Briefly, B16F10 cells were seeded in a 96-well plate at a density of 1 × 10^4 cells/well and cultivated at 37 °C for 24 h in a humid environment with 5% CO2. […] The cells were then incubated at 37 °C for 2 h after 10 µL of the EZ-Cytox solution had been added to each well. To determine the cell viability, the absorbance of each well was measured at 450 nm using a microplate reader (VersaMax^TM, Molecular Devices, Sunnyvale, CA, USA). Each assay was performed in triplicates.
Figure 6 Effects of (Z)-BPT derivatives 1–3 on cell viability in B16F10 cells. Cytotoxic effects were measured using an EZ-Cytox assay at six different concentrations (0, 1, 2, 5, 10, and 20 µM) of 1–3. (A) Derivative 1; (B) Derivative 2; (C) Derivative 3. *** p < 0.001 for non-treated cells vs. cells treated with 3.

SMILES | cytotoxicity
O=C1N=C(c2ccccc2)S/C1=C\c1ccc(O)cc1 [Compound 1, (Z)-5-(4-Hydroxybenzylidene)-2-phenylthiazol-4(5H)-one] | did not show any perceptible cytotoxicity
O=C1N=C(c2ccccc2)S/C1=C\c1ccc(O)cc1O [Compound 2, (Z)-5-(2,4-Dihydroxybenzylidene)-2-phenylthiazol-4(5H)-one] | did not show any perceptible cytotoxicity
